Test results from US20080306076A1, “MODULATION OF CHEMOSENSORY RECEPTORS AND LIGANDS ASSOCIATED THEREWITH” (SENOMYX, INC., priority 2007, published 2008).
Numbering of substitutions follows the chain as printed.

Assays:
hT1R1 T149S = biological target: T1, hT1R1 T149S (Homo sapiens, UniProt Q7RTX1, T149S); assay: Mutagenesis study, hT1R1 mutant T149S; format: cell-based; conditions: 0.25 mM of L-Glu, FIG. 12
T1 construct: expressed in transfected cells; host or cells: HEK293, transient transfection
T1 sequence (Q7RTX1 21-841 T149S): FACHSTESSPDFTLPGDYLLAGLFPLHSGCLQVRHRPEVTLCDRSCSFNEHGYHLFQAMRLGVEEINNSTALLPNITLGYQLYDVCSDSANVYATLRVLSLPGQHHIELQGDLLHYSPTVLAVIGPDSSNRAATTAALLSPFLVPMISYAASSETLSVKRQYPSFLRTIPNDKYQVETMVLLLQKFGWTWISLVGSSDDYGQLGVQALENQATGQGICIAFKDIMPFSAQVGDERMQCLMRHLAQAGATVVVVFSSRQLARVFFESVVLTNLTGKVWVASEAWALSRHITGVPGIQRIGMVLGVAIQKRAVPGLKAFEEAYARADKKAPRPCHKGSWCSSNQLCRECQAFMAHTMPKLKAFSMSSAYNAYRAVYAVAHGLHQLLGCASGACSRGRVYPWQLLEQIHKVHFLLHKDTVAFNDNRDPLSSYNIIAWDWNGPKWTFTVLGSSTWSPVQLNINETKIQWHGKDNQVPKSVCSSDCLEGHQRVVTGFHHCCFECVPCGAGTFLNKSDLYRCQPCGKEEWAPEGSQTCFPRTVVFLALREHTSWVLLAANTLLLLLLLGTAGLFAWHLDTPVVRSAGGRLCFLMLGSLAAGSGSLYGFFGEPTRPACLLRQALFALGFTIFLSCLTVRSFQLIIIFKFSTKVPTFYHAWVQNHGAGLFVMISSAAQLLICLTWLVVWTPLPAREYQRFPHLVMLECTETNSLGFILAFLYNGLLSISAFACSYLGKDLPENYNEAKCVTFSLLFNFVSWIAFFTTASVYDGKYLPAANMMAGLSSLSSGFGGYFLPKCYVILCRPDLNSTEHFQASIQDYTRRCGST
T1 sequence (Q923K1 21-858 partner): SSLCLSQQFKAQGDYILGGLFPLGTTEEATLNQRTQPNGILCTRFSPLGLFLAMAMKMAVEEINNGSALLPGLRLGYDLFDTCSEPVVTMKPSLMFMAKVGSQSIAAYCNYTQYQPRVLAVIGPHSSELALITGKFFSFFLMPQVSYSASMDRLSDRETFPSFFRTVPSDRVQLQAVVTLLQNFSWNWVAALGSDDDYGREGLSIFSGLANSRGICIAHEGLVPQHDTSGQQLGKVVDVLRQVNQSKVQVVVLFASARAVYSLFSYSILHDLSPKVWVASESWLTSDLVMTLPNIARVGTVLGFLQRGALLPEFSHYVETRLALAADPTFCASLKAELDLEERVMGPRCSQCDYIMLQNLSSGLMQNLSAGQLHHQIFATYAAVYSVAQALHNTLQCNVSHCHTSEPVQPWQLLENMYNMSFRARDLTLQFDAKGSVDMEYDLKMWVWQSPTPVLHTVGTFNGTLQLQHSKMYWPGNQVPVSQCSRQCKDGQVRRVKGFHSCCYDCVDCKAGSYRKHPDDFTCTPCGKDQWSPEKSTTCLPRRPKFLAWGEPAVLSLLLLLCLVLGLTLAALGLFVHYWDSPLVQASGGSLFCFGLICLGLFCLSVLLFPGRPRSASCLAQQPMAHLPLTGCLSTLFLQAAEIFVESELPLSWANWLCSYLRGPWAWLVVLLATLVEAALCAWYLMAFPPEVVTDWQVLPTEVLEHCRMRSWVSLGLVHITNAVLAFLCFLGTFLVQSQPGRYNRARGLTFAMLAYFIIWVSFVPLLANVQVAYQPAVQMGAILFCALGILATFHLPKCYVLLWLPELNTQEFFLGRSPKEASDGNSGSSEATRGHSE
Excerpt: (§1) In order to further define the interaction sites of umami stimuli, we performed site-directed mutagenesis on human T1R1 VFT. The mutagenesis was done using the routine PCR-based method. […] were transiently transfected into HEK293 cell together with the rat T1R3 wild type cDNA, and the transfected cells were characterized using an automated FLIPR machine or a calcium imaging system as described in our previous patent applications.

hT1R1 H71A = biological target: T2, hT1R1 H71A (Homo sapiens, UniProt Q7RTX1, H71A); assay: Mutagenesis study, hT1R1 mutant H71A; format: cell-based; conditions: H71 mutation
T2 construct: expressed in transfected cells; host or cells: HEK293, transient transfection
T2 sequence (Q7RTX1 21-841 H71A): T1 sequence (Q7RTX1 21-841 T149S) with H51A, S129T
T2 sequence (Q923K1 21-858 partner): T1 sequence (Q923K1 21-858 partner)
Excerpt: as §1

| SMILES | activity against L-Glu compared to the wild type (hT1R1 T149S) | enhancement activity of GMP (hT1R1 H71A) |
| --- | --- | --- |
| N[C@@H](CCC(=O)O)C(=O)O [L-Glu, L-glutamate] | increased activity |  |
| Nc1nc2c(ncn2[C@@H]2O[C@H](COP(=O)(O)O)[C@@H](O)[C@H]2O)c(=O)[nH]1 [GMP, guanosine-5′-monophosphate] |  | similarly affected |
